Test results reported in patent US20200032271A1, “COMBINATION THERAPY WITH LIPOSOMAL ANTISENSE OLIGONUCLEOTIDES” (Bio-Path Holdings, Inc., priority 2016, published 2020).
[PEt] = P-ethoxy (ethyl phosphotriester) internucleoside linkage

Assays:
[1] = in vivo
Description: Each participant who receives study drug will be closely monitored for AEs. An AE is any untoward medical occurrence associated with the use of a drug in humans, whether or not considered drug related. Adverse events include any signs, symptoms, illnesses, or diagnoses that appear or worsen during the course of the study. An AE may be an intercurrent illness, an injury, or any concomitant impairment of the participant's health. All AEs occurring at any time from the time of consent through the end of treatment visit will be reported regardless of the etiology of the event. The NCI's CTCAE v4.03 will be used for grading AEs.
The causal relationship to BP1001 IP or Das for all AEs will be assessed as follows: (1) definitely related—AEs clearly attributable to study regimen administration; (2) probably related—AEs for which there is a reasonable possibility of causal association to study regimen; (3) possibly related—AEs for which there is confounding by comorbidities, medications or other considerations but for which it is not unreasonable that the AE may have been caused by study regimen; or (4) not related—AEs that are considered clearly not causally related to study regimen, or for which there is a clear alternative explanation

[2] = Plasma pharmacokinetics of Grb2 antisense oligo in patients; conditions: human, in vivo
Description: Pharmacokinetic (PK) analysis was performed on plasma samples collected from refractory/relapsed patients diagnosed with AML receiving BP1001 (60 mg/m^2)+LDAC or receiving BP1001 (90 mg/m^2)+LDAC.
Blood samples for measurement of Grb2 antisense oligo concentrations were collected from patients in cohorts 7 and 8, at predose, 1, 2, 4, 6, 8, 24, 72 h post start-of-infusion (SOI). Urine samples for measurement of BP1001 concentrations were also collected from patients in cohorts 7 and 8, at start of dose-4 h, 4-8 h postdose, and 8-24 h postdose. PK blood samples were processed to plasma and analyzed using a validated method (Charles River Laboratories, Montreal, Canada) with a lower limit of quantitation (LLOQ; 0.5 ng/mL). Urine samples were analyzed using a validated method (Charles River Laboratories, Montreal, Canada) with a LLOQ of 1.00 ng/mL.
PK parameters were estimated using Phoenix pharmacokinetic software (Certara). A non-compartmental approach consistent with the IV infusion route of administration was used for parameter estimation, using an estimated infusion time of 2.5 h. All parameters were generated from Grb2 antisense oligo individual concentrations in plasma from Day 1 of Cycle 1, whenever practical. […] Parameters were estimated using nominal sampling times relative to the start of infusion. The area under the concentration vs. time curve (AUC) was calculated using the linear trapezoidal method with linear interpolation. The slope of the terminal elimination phase was determined using log linear regression on the unweighted concentration data.

[3] = Tissue distribution study in mice (32P-labeled BP1001); assay type: in vivo; conditions: mouse, 20 mg/kg i.v.
Description: Tissue distribution studies of BP1001 were conducted in mice following i.v. administration. Twenty mice (5/group) were divided into three test article groups and one control group. Test article groups were injected i.v. via the tail vein with radio-labeled (^32P) BP1001 at a dose of 20 mg of oligonucleotide per kg of body weight. Injected mice were euthanized by CO2 inhalation at 4, 24, and 48 hours following injection for organ harvest. Control animals were non-injected animals. Spleen, liver, kidney, heart, stomach, lung, and bone marrow tissue were collected from all animals, and tissue samples (50-100 mg) from each organ were weighed and processed. ^32P radioactivity was counted in a scintillation counter. Results were expressed as mean μg BP1001/g tissue. As expected, no radioactivity was detected in control animals. […] BP1001 accumulated in all tissues examined, with the highest accumulation in spleen, liver, and kidney tissue. At 4 h following injection, mean BP1001 tissue concentrations per g of tissue were: 64 μg (spleen), 50 μg (liver), 34 μg (kidney), and ranged from 12-34 μg in other tissues. […] A minimal amount of BP1001 (˜0.4 μg in two femurs) was detected in the bone marrow, where the concentration remained relatively constant for […].

[4] = Phase I study: dose-limiting toxicity and maximum tolerated dose; assay type: in vivo, human
Description: A BP1001 phase I study was conducted in two parts: (A) BP1001 dose escalation and (B) BP1001 with concurrent low-dose cytarabine (LDAC) dose expansion. For dose escalation (Part A), a standard “3+3” design was used in which successive cohorts of 3 or more patients with hematologic malignancies were treated at escalating doses from 5 to 135 mg/m^2 of BP1001 until a maximum tolerated dose (MTD) was identified. For the dose expansion portion of the study (Part B), two successive subsets of patients with AML were treated with BP1001 at the MTD (or highest tested dose [HTD]) and one level below the MTD (or HTD) in combination with a fixed dose of LDAC to further characterize safety and biological effect, as well as identify the recommended phase 2 dose. Both parts of the study employed an open-label, sequential, dose-escalation design to assess safety, tolerability and toxicity, pharmacokinetics (PK), tumor response, and anti-leukemic activity. A total of 39 patients were treated in the study: AML (n=30), CML-BP (n=5), and MDS (n=4). Of 39 patients, 27 were evaluable; 12 failed completion of a full cycle due to disease progression and were replaced per protocol. Only one patient on 5 mg/m^2 experienced a dose-limiting toxicity (DLT), grade 3 mucositis and hand-foot syndrome, while on high-dose hydroxyurea for proliferative CML-BP. The study medication could not be ruled out as a contributing factor, so this event was reported as a DLT. Upon expansion to six patients, no other patient developed a DLT. No other drug related toxicity has been observed in any of the patients treated. […] The HTD for BP1001 is 90 mg/m^2.
The study was designed as a standard 3+3 dose escalation trial for the assessment of safety, pharmacokinetics and efficacy of BP1001 in adult patients diagnosed with refractory/relapsed Philadelphia chromosome positive CML or ALL, AML, or MDS. Cohorts of three patients were enrolled at each dose level. The initial dose of BP1001 was 5 mg/m^2 (Cohort 1). If one patient developed a grade 3 or higher toxicity, three more patients were accrued at that dose level. […]

[5] = Single-dose toxicity study in mice; conditions: mouse
Description: Fifteen female ICR mice (5/group) were assigned to a non-injected control group (Group IV) and two treatment groups (Groups V and VI) to receive 20 and 40 mg oligo/kg, respectively, intravenously via the tail vein as a single injection. Animals were observed daily and blood was collected for hematology and clinical chemistry evaluations at two and six weeks post injection. Animals were sacrificed following blood collection at six weeks post-injection and tissues collected for gross and microscopic evaluations of organ toxicity.

With “BP1001: liposome-incorporated P-ethoxy antisense oligodeoxynucleotide (5′-ATATTTGGCGATGGCTTC-3′, SEQ ID NO: 1) specific to grb2 mRNA, in neutral DOPC liposomes (DNA, all [PEt], methylation of C not given here; incorporated in neutral DOPC liposomes)” the “Infections and infestations ≥Grade 3, total events” value [1] was “(9/9)”, the “Infections and infestations ≥Grade 3, total patients” value [1] was “(9/9)” and the Tmax ([2]; 60 mg/m2) was 1 h. The t1/2 ([2]; 60 mg/m2) was 29.6 ± 8.1 h, the Tmax ([2]; 90 mg/m2) was 1 h and the t1/2 ([2]; 90 mg/m2) was 11.8 ± 5.4 h. The “tissue half-life in lungs” value [3] was about 48 h, the “tissue half-life in spleen, liver, kidney, heart and stomach” value [3] was “approximately 24 h” and the “mean tissue concentration, kidney” value ([3]; 4 h) was 34 μg/g tissue. For the same substance, the “mean tissue concentration, liver” value ([3]; 4 h) was 50 μg/g tissue, the “mean tissue concentration, other tissues” value ([3]; 4 h) was 12-34 μg/g tissue and the “mean tissue concentration, spleen” value ([3]; 4 h) was 64 μg/g tissue. The “amount detected in bone marrow (two femurs)” value ([3]; relatively constant for 72 h) was about 0.4 µg, the “patients with dose-limiting toxicity (grade 3 mucositis and hand-foot syndrome)” value ([4]; 5 mg/m^2, patient on high-dose hydroxyurea for CML-BP, no other DLT after expansion to six) was “one” and the “highest tested dose (HTD)” value ([4]; patients) was 90 mg/m^2. The “maximum tolerated dose (MTD)” value ([4]; patients, 5 to 90 mg/m^2 i.v. twice weekly) was “not identified”, the “WBC counts at six weeks post-injection” value ([5]; single i.v. 30 mg oligo/kg) was “Recovery” and the “group average WBC count at six weeks” value ([5]; single i.v. 40 mg oligo/kg, not statistically different than control) was “not fully recovered”. The morbidity or mortality ([5]; single i.v. 15-40 mg oligo/kg, six weeks observation) was “No signs of morbidity or mortality”, the “drug-related lesions in examined organs” value ([5]; single i.v. 15-40 mg/kg) was “no drug-related lesions” and the “WBC count at two weeks post-injection” value ([5]; single i.v. 30 and 40 mg oligo/kg) was “Reduction”.
